{
  "source": "patent US20080249124A1",
  "about": "“WORTMANNIN-RAPALOG CONJUGATE AND USES THEREOF” (Wyeth, priority 2007, published 2008)",
  "key": {"C3H mammary model": {"system": "C3H mammary model", "conditions": "cited from earlier work"}, "PI3K": {"system": "PI3K", "conditions": "cited from earlier work"}, "[1]": {"system": "U87MG (human glioblastoma) tumor", "assay": "Xenograft tumor efficacy study", "assay_type": "in vivo", "conditions": "female nude mice; for tumor size versus control and single reference compounds: 15 mg/kg IV on day 0 and day 7, D5W vehicle; for tumor size versus mixture of reference compounds 1 and 2: 15 mg/kg IV on day 0 and day 7, mixture 10 mg/kg/5 mg/kg", "protocol": "Female nude mice at 10 weeks of age were inoculated subcutaneously on the flank with 200 μL U87MG (human glioblastoma) tumor cell suspension. U87MG cells were suspended in full growth media and were implanted at 10 million cells per mouse. Mice were staged when tumors reached approximately 200 mm^3 in sizes. Tumor bearing mice at staging (day 0) were randomized into treatment groups (n=10). The conjugates described herein were formulated in D5W vehicle (glucose-water) and were dosed IV on day 0 and day 7. See, Table 6.\nThe growth of tumors was monitored twice a week for the duration of the experiment. Tumor size was measured using sliding vernier calipers, and the tumor mass was calculated using the formula (length×Width^2)/2."}, "tumor xenografts": {"system": "tumor xenografts", "conditions": "animals; cited from earlier work"}},
  "data": [
    {"compound": "COCC1OC(=O)c2coc3c2C1(C)C1=C(C3=O)C2CCC(O)C2(C)CC1OC(C)=O", "note": "(stereo not drawn) [17β-Hydroxywortmannin]", "values": [
      {"measurement": "anti-tumor activity", "setting": "C3H mammary model; dose of 0.5 mg/kg", "value": "no inhibition"},
      {"measurement": "toxicity", "setting": "C3H mammary model; dose of 1.0 mg/kg", "value": "toxicity"},
      {"measurement": "increase in activity relative to wortmannin", "setting": "PI3K; PI3K", "value": 10, "unit": "fold"},
      {"measurement": "IC50", "setting": "PI3K", "value": 0.5, "unit": "nM"}
    ]},
    {"compound": "COC[C@H]1OC(=O)/C(=C/N(C)CCCN(C)C)C2=C(O)C(=O)C3=C([C@H](OC(C)=O)C[C@@]4(C)C3CC[C@@H]4OC(=O)CCCCCCC(=O)O[C@H]3CC[C@H](C[C@@H](C)[C@@H]4CC(=O)[C@H](C)/C=C(\\C)[C@@H](O)[C@@H](OC)C(=O)[C@H](C)C[C@H](C)/C=C/C=C/C=C(\\C)[C@@H](OC)C[C@@H]5CC[C@@H](C)[C@@](O)(O5)C(=O)C(=O)N5CCCC[C@H]5C(=O)O4)CC3)[C@]21C", "note": "(stereo partly shown) [Example 2b, N,N,N′-trimethyl-1,3-propanediamine adduct of 42,17′-linked 41-Desmethoxyrapamycin-Suberate-Wortmannin conjugate]", "values": [
      {"measurement": "tumor size versus control and single reference compounds", "setting": "[1]", "value": "smaller tumors than tumors treated with control or with reference compound 1 or reference compound"},
      {"measurement": "tumor size versus mixture of reference compounds 1 and 2", "setting": "[1]", "value": "tumors of comparable size to that achieved with a mixture of reference compounds 1 and 2"}
    ]},
    {"compound": "COC[C@H]1OC(=O)c2coc3c2[C@@]1(C)C1=C(C3=O)[C@@H]2CCC(=O)[C@@]2(C)C[C@H]1OC(C)=O", "note": "[Wortmannin]", "values": [
      {"measurement": "PI3K inhibition", "setting": "PI3K", "value": "irreversible inhibitor, at nanomolar concentrations"},
      {"measurement": "antitumor activity against tumor xenografts", "setting": "tumor xenografts", "value": "antitumor activity against tumor xenografts in animals"}
    ]},
    {"compound": "Diallylamine Adduct of 42,17′-linked 41-Desmethoxyrapamycin-Suberate-Wortmannin Conjugate [Example 2a]", "values": [
      {"measurement": "tumor size versus control and single reference compounds", "setting": "[1]", "value": "smaller tumors than tumors treated with control or with reference compound 1 or reference compound"}
    ]},
    {"compound": "diallylamine adduct of 17-hydroxywortmannin [compound 2]", "values": [
      {"measurement": "tumor size versus mixture of reference compounds 1 and 2", "setting": "[1]", "value": "tumors of comparable size to that achieved with a mixture of reference compounds 1 and 2"}
    ]}
  ]
}
